The record followed here is a melting point compilation (Tetko et al.; mined from patent text by program, amines drawn as free bases though some values may be those of a salt).

For orientation: melting point means the temperature, or range, at which the solid turns liquid.

`COc1ccc(-c2c(C(=O)O)n(Cc3cc4c(cc3Cl)OCO4)c3ccccc23)c(OCC(=O)O)c1`: the melting point lay in the range of 61 to 62 °C.
The compound `COC(=O)c1cccc(-c2cccc3c2nc(N(C)c2cccc(C(F)(F)F)c2)n3C)c1` gave a melting point of 148 to 149 °C.
The figure for `CCCCCCCCCCCCCCCCCC(=O)NN(C(=O)CCCCCCCCCCCCCCCCC)C(=O)CCC(=O)NN` is 248 to 252 °C; for `CC(=O)c1ccc(NC(=O)NCCCN(CCCNC(=O)Nc2ccc(C(C)=O)cc2)CCCNC(=O)Nc2ccc(C(C)=O)cc2)cc1` it is 184 to 185 °C.
On to `c1ccc(C(c2ccccc2)(c2cncnc2)n2ccnc2)cc1`, for which the melting point amounted to 161 °C.
As for `N#Cc1ccc(OCc2ccnnc2)cc1OC(C(=O)O)c1ccccc1Cl` (racemic), the melting point was 203 to 205 °C.
Under `CC(C)(NC(=O)c1ccc([N+](=O)[O-])cc1)C(=O)CCl` stands 181 to 182 °C; under `O=C1OC[C@@H](CF)N1c1nc(-c2ccc(Br)cc2)cs1`, 148 to 150 °C.
The figure for `CC(=O)OCC(=O)Nc1cccc(NC(=O)COC(C)=O)c1C#N` is 151 to 153 °C; for `O=C(CCC(=O)c1ccc(F)cc1)Nc1ccc(-n2nc(C(F)(F)F)cc2C(F)(F)F)cc1` it is 156 to 158 °C.
The figure for `COC(=O)COc1ccc(NC(=O)CCCCCO)cc1` is 87.5 to 90.4 °C; for `COc1cc2c3c(c1)c(N)c(C(=O)N1CCc4ccccc41)c(=O)n3CCO2` it is 130 to 140 °C.
On to `O=C(O)c1cccc(-c2cc3c(Nc4cccc(Cl)c4)ncnc3[nH]2)c1`, for which the melting point was > 300 °C.
Under `COC(=O)Cc1c(C)n(O)c(=O)c2ccccc12` stands 185 to 190 °C; under `COCc1c(C(=O)NN)ncc2[nH]c3cccc(OCc4ccccc4)c3c12`, 212 to 213 °C.
Under `Cc1nnc2n1-c1sc(CCC(=O)N3CCOCC3)cc1C(c1ccccc1Cl)=NC2C` (stereo unspecified) stands 162 to 163 °C; under `O=C(NCCN1CCC(Nc2nc3ccccc3n2Cc2ccc(F)cc2)CC1)c1cc2ccccc2[nH]1`, 232 °C.
With `Cc1ccc(NC(=O)NCc2cccc3c2CN(C2CCC(=O)NC2=O)C3=O)cc1Cl` (stereo unspecified), the melting point is > 260 °C.
Under `CCCCCCCC(=O)N1CCN(c2ccc3c(c2)N2CCN=C2C(c2ccccc2)=[N+]3[O-])CC1` stands 212 to 213 °C; under `CON(C)C(=O)c1cc2c3c(c1)c(-c1cccc(Cl)c1)cc(=O)n3CC2`, 162 °C; under `CC(C)c1ccc(O)c(C(C)C)c1NC(=O)CN1CCN(CCSc2nc3cccc(C(F)(F)F)c3o2)CC1`, 82 to 84 °C.
The compound `Cc1nc(NCC(C)C)sc1C(=O)c1ccc(N)c([N+](=O)[O-])c1` yielded a melting point of 210 to 215 °C.
The figure for `CC(=O)NC[C@H]1CN(c2ccc(N3CCC(O)(CN4CCOCC4)CC3)c(F)c2)C(=O)O1` is 184 to 186 °C; for `Cc1ccc(S(=O)(=O)c2cnc(C)nc2Nc2c(C)cc(C)cc2C)cc1` it is 202 to 204 °C; for `C[Si](C)(C)O[C@@H]1C(=O)N[C@@H]1c1ccccc1` (relative stereo) it is 118 to 120 °C.
Under `CCNc1nc(C)c(-c2ccncc2)s1` stands 129 to 131 °C; under `O=C(Cl)c1cc(Oc2ccc(C(F)(F)F)cc2Cl)ccc1[N+](=O)[O-]`, 118 to 120 °C.
The compound `Cc1cc(O)c(SCc2cccc3ccccc23)c(=O)o1` yielded a melting point of 170 °C.
Under `C=CC(=O)NC(C)c1ccc(Cl)cc1` (stereo unspecified) stands 103 to 104 °C.
Under `COc1ccc(Cn2c3c(c4cc(F)cc(F)c42)CCCC3CC(=O)O)cc1` (stereo unspecified) stands 149 to 151 °C; under `O=C1NCCc2c(-c3ccsc3)[nH]c3cccc1c23`, 255 to 256 °C; under `O=C(Nc1ccc2c(c1)CCN(Cc1ccccc1)C2)c1ccccc1-c1ccc(C(F)(F)F)cc1`, 230 to 232 °C.
Under `CN1CCC(C(=O)OC2c3ccccc3C(=O)N2c2ccc3ccc(Cl)nc3n2)CC1` (stereo unspecified) stands 136 °C; under `O=C(COc1ccc(CN2CCCC2)cc1)Nc1ccc(Br)cc1`, 143 to 145 °C.
Compound `Cc1c(C(=O)c2cnn(C(C)(C)C)c2O)ccc(S(C)(=O)=O)c1-c1ccc(S(C)(=O)=O)cc1` returned a melting point of 187 to 188 °C.
With `O=C(CC(O)C(=O)O)c1ccc(C(F)(F)F)cc1` (stereo unspecified), the melting point lay within 118 to 120 °C.
The figure for `Cc1c(C(=O)c2ccc(Cl)c(S(N)(=O)=O)c2)sc2ccccc12` is 210 °C.
`c1ccc(NC[C@@H]2N[C@H]2c2ccccc2)cc1` (relative stereo) showed a melting point of 96 to 97 °C.
The compound `O=c1[nH]c2ccc(F)cc2s1` had a melting point of 188 to 189 °C.
Under `Cc1ccc(S(=O)(=O)n2cc(CCN(Cc3ccccc3)Cc3ccccc3)c3ccccc32)cc1` stands 116 to 118 °C; under `COc1cc(-c2nc(N(C)CCN(C)C)c3c(C)c(C#N)sc3n2)cc(OC)c1OC`, 125 to 127 °C.
With `Cc1[nH]cnc1CN1CC2COc3ccccc3N2C1=O` (stereo unspecified), the melting point was in the range of 212 to 216 °C.
The figure for `Cc1cc(C(O)(C(F)(F)F)C(F)(F)F)cc(C)c1NCCN(C)C` is 112 to 115 °C.
Regarding `O=C(O)c1csc(Nc2ccc(C(F)(F)F)cc2)n1`, the melting point is 255 to 259 °C.
The compound `CCCCC(C(=O)OCC)(C(=O)OCC)c1nc(C)nc2c1c(SC)nn2-c1c(Cl)cc(Cl)cc1Cl` came in with a melting point of 148 to 150 °C.
The figure for `COc1ccc(N2CCN(c3c(C)c(C)c4c(c3C)C(CN3CCCCC3)C(C)(C)O4)CC2)cc1` (stereo unspecified) is 144 to 145 °C.
The figure for `CC(=O)NCc1ccn(-c2cc3c(cc2C(F)(F)F)[nH]c(=O)c(=O)n3CC(=O)O)c1` is 250 to 251 °C; for `CN(C)C(=O)C1CCC2C(=O)N(c3ccccc3)C(=O)N12` (stereo unspecified) it is 172 to 174 °C.
The figure for `CS(=O)(=O)Nc1c(-c2cc(Cl)ccc2O)c2cc(C(F)(F)F)ccc2[nH]c1=O` is 263 to 265 °C.
For `COC(=O)c1cc(C)sc1S(N)(=O)=O`, the melting point fell in the range of 137 to 138 °C.
Compound `O=C(O)CSc1nc(-c2ccccc2)c(-c2ccccc2)o1` showed a melting point of 66 to 68 °C.
Turning to `Cc1nc(N2CCN(Cc3ccccc3)C2=O)sc1C(=O)NCc1cccc(Cl)c1`, the melting point is 178 to 179 °C.
Take `CNC(=S)N(C)c1ccc(Cl)nc1`: the melting point was 87.5 to 88 °C.
Under `Cn1ncc(N2CCCC2)c(-c2ccccc2C=NO)c1=O` stands 239 °C; under `c1ccnc2ccccc2c2ccccc2cc1`, 165 to 167 °C.
Under `COc1cc(CNC(=O)c2nc3scc(COCc4ccc(C(=O)O)cc4)c3c(=O)[nH]2)ccc1F` stands 225 to 226 °C; under `CC(C)Oc1ccc(NC(=S)NCc2ccoc2)cc1`, 89 to 90 °C; under `CCCCc1cc2ccccc2c(Oc2ccc(/C=C/C(=O)O)cc2)c1-c1ccccc1`, 160 to 161 °C.
Under `COc1cc2c(cc1Br)C(=CNc1ccc(N3CCN(C)CC3)cc1)C(=O)NC2=O` stands 274 to 276 °C; under `COc1cc(OC)c2c(=O)[nH]c(-c3ccc(OCC(N)=O)cc3)nc2c1`, 309 to 311 °C; under `CC(C)(C)c1ccc(NC(=O)c2ccc(C3NOC(=O)N3)cc2)cc1` (stereo unspecified), > 300 °C.
Regarding `COC(=O)c1cc(OC(C)=O)c2cc(Br)ccc2c1C`, the melting point is 78 °C.
In the case of `COCCCNc1cc(C)ccc1N`, the melting point fell in the range of 69 to 72 °C.
Under `Cc1ccnc(-c2ccc([N+](=O)[O-])cc2)c1` stands 145 to 147 °C; under `Cc1nc(NC(=O)NC(C)(C)C)ccc1-c1ccncc1`, 297 to 300 °C; under `COc1cc(C(=O)C=Cc2cccnc2)cc(OC)c1OC`, 137 to 138 °C.
Under `CC(=O)N(C)C(=O)Oc1cccc2c1OC(C)(C)O2` stands 76 to 77 °C; under `CC(=O)n1ncn(N=Cc2cccnc2)c1=O`, 164 to 166 °C; under `CC(C)CCN1C(=O)C2(COc3cc4c(cc32)OCCO4)c2ccccc21` (stereo unspecified), 134 to 137 °C.
The figure for `COc1ccc2c(=O)c(-c3ccccc3)c(SCc3ccccc3)oc2c1` is 153 to 154 °C; for `Cn1cccc1C(=O)NCCO` it is 78.1 °C; for `O=[N+]([O-])c1ccc(CF)cc1[N+](=O)[O-]` it is 37.5 to 38.5 °C.
`CC(N)C(C)n1ncn(-c2ccc(N3CCN(c4ccc(O)cc4)CC3)cc2)c1=O` (stereo unspecified) had a melting point of 237 °C.
Under `CCn1cc(C(=O)O)c(=O)c2cc(F)c(N3CCN(C)C(c4ccc(C)s4)C3)cc21` (stereo unspecified) stands 224 °C; under `CC(=O)NC[C@H]1CN(c2ccc(C(=O)c3cnc4ncccn34)cc2)C(=O)O1`, 257 to 260 °C.
The figure for `N#Cc1cc(NC(=O)c2cc3ccccc3s2)ccc1N1CCN(C2CCOCC2)CC1` is > 285 °C.
The figure for `N#Cc1ccc(O[C@@H]2c3ncccc3C[C@H]2N2CCC[C@@H](N)C2)c(Cl)c1` is 180 °C; for `CCC(CC)O[C@@H]1C=C(C(=O)O)C[C@H](CC2CO2)[C@H]1NC(C)=O` (stereo partly specified) it is 115 to 116 °C.
On to `Cc1cc(C(=O)CCc2cc(-c3ccc(C(F)(F)F)cc3)nn2C(C)C)ccc1OCC(=O)O`, for which the melting point lay in the range of 160 to 163 °C.
The figure for `Cc1[nH]c2ccccc2c1C(=O)CCN(C)C` is 172 to 175 °C; for `[N-]=[N+]=NCC1Cc2cc(I)c3[nH]c(=O)ccc3c2O1` (stereo unspecified) it is 175 °C.
The figure for `COC(=O)N1C(C)=NC(C)=C(C(=O)NCCCN2CCC(C(=O)OC)(c3ccccc3)CC2)C1c1ccc(F)c(F)c1` (stereo unspecified) is 55 to 57 °C; for `COC(=O)C(=O)c1ccc(OCCOc2ccc3ccccc3c2)cc1` it is 155 to 157 °C; for `CCCCCCCCNC(=O)N(C)C[C@H](O)[C@@H](O)[C@H](O)[C@H](O)CO` it is 111 °C.
`COc1ccc2oc(N(C=O)[C@@H](Cc3ccccn3)c3ncc(-c4ccc(-n5ccnc5)cc4)n3C)cc2c1` came in with a melting point of 151 to 153 °C.
Compound `O=C(O)c1cccc(-c2cc(-c3ccc(Cl)cc3)no2)c1` registered a melting point of 265 to 266 °C.
